{
  "source": "patent US6624187B1",
  "about": "“Long wave length absorbing bacteriochlorin alkyl ether analogs” (Health Research, Inc., priority 2000, dated 2003)",
  "key": {"[1]": {"system": "RIF tumor", "assay": "In vivo photosensitizing efficacy of bacteriopurpurinimides against RIF tumor", "settings": "for Tumor Response (%): Day 7-90", "experimental": "The photosensitizers were dissolved in known quantity of Tween 80 (Aldrich) surfactant and diluted by a factor of 10 with 5% dextrose solution in water to produce a final Tween 80 concentration of 1%. The solution was then filtered through a syringe filter. The concentration of the solution was determined on the basis of the extinction coefficient value of the photosensitizer at the longest wavelength absorption.\nBefore injecting the drug to the animals, the purity of the material was confirmed by HPLC using a Spectra-Physics system connected to a SP8 700 solvent delivery system and Kratos 757 absorption detector with a fixed wavelength at 405 or 786 nm. Two solvent systems were used in the HPLC analysis: solvent A was prepared by dissolving anhydrous dibasic sodium phosphate (1.0 g) in 400 ml water. To this was added HPLC grade methanol (600 ml). The pH of the solution was adjusted to 7.5 with phosphoric acid; and solvent B was prepared by dissolving anhydrous dibasic sodium phosphate (0.3 g) in 100 ml water, to this was added methanol (900 ml), and the pH was adjusted to 7.5 with phosphoric acid. Solvents A and B were used as gradient mode (0-10 min A, 10-40 min A-B, 40-50 min B, 50-60 min back to A). In some cases solvent B was used as isocratic mode (column reverse phase C-8, flow rate 1.5 ml/min). Prior to irradiation, the fur over grown and surrounding the tumor was removed with electric clippers. Twenty four hours after injecting the drug, the mouse was placed in a custom made aluminum holder. Standard light dose 75 mW/cm^2 for 30 min for a total incident light dose of 135 J/cm^2 from a tunable dye laser tuned to the maximum red absorption peak at 790 nm (in vivo absorption, determined by in vivo reflectance spectroscopy). Laser output was measured with a power meter.\nFollowing light exposure, the mice were kept in groups of 5/cage and supplied with pelleted food and water ad libitum. Tumor size and gross appearance of both tumor and overlying skin was monitored daily for 90 days after photo-illumination unless growth of non-responsive tumor require early sacrifice of those animals.\nBacteriopurpurin-imides 5-7 above have been evaluated for in vivo studies in a mouse tumor model system (RIF tumor). […] The mice were treated with light (790 nm, 135 J/cm^2) after 24 h post injection of the drug (80% tumor cure on day 21 and 60% on day 90). […] The efficacy of the drug was also determined at variable drug and light doses."}, "[2]": {"system": "mouse foot tissue", "assay": "Foot response phototoxicity in mouse foot tissue", "type": "in vivo", "settings": "0.47 mmol/kg I.V.; 135 J/cm^2 at 790 nm; feet illuminated 5 days after injection", "experimental": "Since prolonged cutaneous photosensitivity is a serious side-effect of Photofrin® administration, we tested the phototoxicity of 3-deacetyl-3-(1-heptyloxyethyl) bacteriopurpurin-18-N-hexylimide 7 in mouse foot tissue and the therapeutic drug and light doses. Mice were injected (I.V.) with 0.47 mmol/kg of the drug. Feet were illuminated with 135 J/cm^2 at 790 nm laser light on days 1, 2, 3, 4 and 5 (FIG. 5). Foot response was graded according to the following arbitrary scale: 0, no difference from normal; 0.1, very slight edema; 0.3, slight edema; 0.5, moderate edema; 0.75, large edema; 1, large edema with exudate; 1.2, moderate reddening with slight scaly or crusty appearance; 1.65, slight damage to toes; 1.75, definite damage or slight fusion of toes; 2.0, most toes fused; 2.5, foot almost shapeless with no toes; 3, only stub of foot remaining."}, "[3]": {"system": "RIF tumor", "assay": "Tumor uptake and in vivo absorption shift by in vivo reflectance spectroscopy", "set-up": "species or system mouse", "experimental": "FIGS. 4A and 4B show curves of in vivo light wave absorption of compound 7 in RIF tumor at 24 hours and 5 days post injection.\nThe tumor uptake and in vivo shift in the long wavelength absorption of the bacteriopurpurin-imide 7 was determined by in vivo reflectance spectroscopy. […] Thus, the tumors were irradiated with light at that particular wavelength. […] In vivo studies with these and other bacteriochlorin analogs at variable treatment conditions are currently in progress."}, "[4]": {"assay": "In vivo PDT efficacy of bacteriochlorin-N-hexylimide", "excerpt": "Compared to the anhydride ring system, compounds with fused imide ring system in other compounds have shown stability in vivo. For example, among non-porphyrin systems, amonafide, an imide derivative and its structural analogs are reported as anti-neoplastic agents in vitro as well as in vivo with good stability. While we could not know how this might apply to non-porphyrin systems, we investigated the effect of such cyclic structures in the bacteriochlorin system. Initially we followed our own methodology developed for the preparation of purpurin-18-N-alkylimides (U.S. Pat. No. 5,952,366 incorporated herein by reference). Unfortunately, that approach produced a complex reaction mixture. Thus, in a modified approach, bacteriopurpurin-a 2 was first reacted with an alkyl amine (e.g. n-hexyl amine). The formation of the intermediate amide was monitored by spectrophotometry and analytical thin layer chromatography. The intermediate amide analog 3, obtained as a mixture of two isomers, was reacted with diazomethane, and the solvent was removed under vacuum. The residue so obtained was re-dissolved in tetrahydrofuran, and solvent was evaporated. This procedure was repeated several times until the disappearance of the absorption at 765 nm and appearance of a new peak at 822 nm."}, "[5]": {"settings": "injected dose 1.0 μmol/kg, light 790 nm 135J/cm^2 24 h post injection, C3H mice"}, "[6]": {"settings": "injected dose 0.2 μmol/kg, light 790 nm 175J/cm^2 24 h post injection"}, "[7]": {"settings": "injected dose 0.47 μmol/kg, light 790 nm 135J/cm^2 24 h post injection"}},
  "note": "“Also recorded” adds a separate entry of the source.",
  "data": [
    {"compound": "CCCCCCN1C(=O)c2c3nc(cc4[nH]c(cc5nc(cc6[nH]c2c(c6C)C1=O)[C@H](CC)[C@H]5C)c(C(C)O)c4C)[C@@H](C)[C@@H]3CCC(=O)OCCC", "note": "(stereo partly shown) [Compound 5, 3-Deacetyl-3-(1-hydroxyethyl)bacteriopurrurin-18-N-hexylimide]", "values": [
      {"measurement": "Tumor Response (%)", "setting": "[1]; [5]", "result": "did not produce any PDT efficacy; also recorded: NO RESPONSE"}
    ]},
    {"compound": "CCCCCCCOC(C)c1c(C)c2cc3nc(c4c5[nH]c(cc6nc(cc1[nH]2)[C@H](C)[C@H]6CC)c(C)c5C(=O)N(CCCCCC)C4=O)[C@@H](CCC(=O)OCCC)[C@@H]3C", "note": "(stereo partly shown) [Compound 7, 3-Deacetyl-3-(1-heptyloxyethyl)-bacteriopurpurin-N-hexylimide Propyl Ester]", "values": [
      {"measurement": "mice tumor free on day 90", "setting": "[1]; drug dose 0.2 μmol/kg, light dose 175 J/cm^2", "result": "four out of six"},
      {"measurement": "mice died after the light treatment", "setting": "[1]; drug dose 1.0 μmol/kg, light 790 nm, 135 J/cm^2", "result": "6/6"},
      {"measurement": "Tumor Response (%)", "setting": "[1]; injected dose 0.2 μmol/kg, light 790 nm 135J/cm^2 24 h post injection", "result": "did not show any PDT efficacy; also recorded: NO RESPONSE"},
      {"measurement": "Tumor Response (%) Day 7", "setting": "[1]; [6]", "result": 100, "unit": "%"},
      {"measurement": "Tumor Response (%) Day 21", "setting": "[1]; [6]", "result": 70, "unit": "%"},
      {"measurement": "Tumor Response (%) Day 90", "setting": "[1]; [6]", "result": 70, "unit": "%"},
      {"measurement": "Tumor Response (%) Day 7", "setting": "[1]; [7]", "result": 80, "unit": "%"},
      {"measurement": "Tumor Response (%) Day 21", "setting": "[1]; [7]", "result": 80, "unit": "%"},
      {"measurement": "Tumor Response (%) Day 90", "setting": "[1]; [7]", "result": 60, "unit": "%"},
      {"measurement": "Tumor Response (%)", "setting": "[1]; [5]", "result": "ALL MICE DIED"},
      {"measurement": "foot response phototoxicity", "setting": "[2]", "result": "did not show any toxicity"},
      {"measurement": "in vivo stability of fused imide ring system", "setting": "[3]; 5 day post injection", "result": "quite stable in vivo"},
      {"measurement": "tumor uptake", "setting": "[3]; day 5 versus day 1 post injection, RIF tumor", "result": "significantly higher tumor uptake at day 5 than day 1"}
    ]},
    {"compound": "3-Acetyl-bacteriopurpurin-18-N-hexylimide [Compound 4]", "values": [
      {"measurement": "in vivo PDT efficacy", "setting": "[4]", "result": "did not produce any significant in vivo PDT efficacy"}
    ]},
    {"compound": "C=Cc1c(C)c2cc3nc(c4c5[nH]c(cc6nc(cc1[nH]2)[C@H](C)[C@H]6CC)c(C)c5C(=O)N(CCCCCC)C4=O)[C@@H](CCC(=O)OCCC)[C@@H]3C", "note": "[Compound 6, 3-Deacetyl-3-vinyl-bacteriopurpurin-18-N-hexylimide Propylester]", "values": [
      {"measurement": "Tumor Response (%)", "setting": "[1]; [5]", "result": "did not produce any PDT efficacy; also recorded: NO RESPONSE"}
    ]}
  ]
}
